The text below walks through data of US20260115250A1, “METHODS OF TREATING AGE-RELATED MACULAR DEGENERATION” (Character Biosciences, Inc., priority 2022, published 2026).

For one test, the system named is HepG2 cells. Briefly: HepG2 cholesterol import (BODIPY-Cholesterol). The following applies: HepG2, peptide:lipid complexes from 30 μM diluted 1:3. Type of test: cell-based.
A short description of test [1]: DMPC solubility assay, 0.5 mM DMPC (turbidity reduction). It is filed as biochemical. The essentials:
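Peptides (100 μM final, or 3.16-100 μM for titrations) incubated with 0.5 mM DMPC in water for 15 minutes at room temperature. Turbidity read as absorbance at 405 nm; EC50 from non-linear regression, mean+SD over two runs.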

A further test relates to ARPE-19 cells. Nature of the test: ARPE-19 cell lysis (Sytox Green). It is filed as cell-based, human. The following applies: 3.16-100 μM peptide, 2 h.

Structures are written as SMILES. Peptide text beside a SMILES is read from it.

Experimental for HepG2 cells: HepG2 cells were seeded on a 96-well plate at 10,000 cells per well and grown to confluence. A solution of 500 μM DMPC and 50 μM BODIPY-Cholesterol was prepared in serum free EMEM. Peptides were diluted to 20 μM in serum free EMEM (a 2× solution). Peptides were added to lipid solution in equal parts (60 μL each) to create final 1× concentration and incubated for 1 hour at 37° C. HepG2 cells were serum starved in serum-free EMEM for 1 hour at 37° C. Peptide: Lipid complexes (100 μL total volume per well) were transferred to HepG2 cells for 2 hours at 37° C. Cells were washed, fixed, and intracellular fluorescence was read on Promega GloMax at 475 nm excitation, 500-550 emission. Fluorescence values were background corrected from no treatment conditions. Data are presented as mean+SD for two runs.
HepG2 cells were seeded on 96-well plates at 10,000 cells per well and grown to confluence. Peptide: Lipid complexes were created by preparing a solution of serum-free EMEM containing 30 μM peptide, 750 μM DMPC, and 75 μM BODIPY-Cholesterol. Peptide: Lipid complexes were serially diluted 1:3 for 5 concentrations, and incubated for 1 hour at 37° C. […] Cells were washed, fixed, and intracellular fluorescence was read on Promega GloMax at 475 nm excitation, 500-550 emission. Fluorescence values were background corrected from no treatment conditions. […]

As for `CC[C@H](C)[C@H](NC(=O)CNC(=O)[C@H](CO)NC(=O)[C@@H](NC(=O)[C@H](Cc1c[nH]c2ccccc12)NC(=O)[C@H](Cc1c[nH]cn1)NC(=O)[C@H](CCC(=O)O)NC(=O)[C@H](Cc1ccccc1)NC(=O)[C@H](CCCNC(=N)N)NC(=O)[C@H](CC(C)C)NC(=O)[C@H](CC(C)C)NC(=O)[C@H](CCCNC(=N)N)NC(=O)[C@H](CCCCN)NC(=O)[C@H](CCCNC(=N)N)NC(=O)[C@H](CC(C)C)NC(=O)[C@H](CCCCN)NC(=O)[C@H](CCCNC(=N)N)NC(=O)[C@H](CC(C)C)NC(=O)[C@@H](N)Cc1c[nH]cn1)[C@@H](C)CC)C(=O)N[C@@H](Cc1ccc(O)cc1)C(=O)N[C@@H](CO)C(=O)N[C@@H](CCC(=O)O)C(=O)N[C@@H](CS)C(=O)N[C@@H](CCCCN)C(=O)N[C@@H](Cc1c[nH]cn1)C(=O)N[C@@H](CC(C)C)C(=O)N[C@H](C(=O)N[C@@H](CCC(N)=O)C(=O)N[C@@H](CCC(=O)O)C(=O)O)[C@@H](C)CC` [T-025] (H-HLRKLRKRLLRFEHWISGIYSECKHLIQE-OH; N-terminus and C-terminus assumed), the cholesterol import titration entry in the test with HepG2 cells is “concentration-dependent cholesterol import activity”. The concentration for a half-maximal effect (EC50) (commonly the concentration giving half of the maximal effect) was 25.3 µM in test [1] (3.16-100 μM peptides, 15 minutes) and 144 µM in the test on ARPE-19 cells. Besides, the DMPC solubilizing activity entry in test [1] (FIGS. 2A-2D and 3A-3C) is given as “significant activity”.
